From US7713994B2 (Wyeth LLC, priority 2005, dated 2010)

Experiments:
[1] = tested on: MCF-7; test: Cytotoxicity assay (SRB), MCF-7; format: cell-based; details: Homo sapiens, MCF7, 72 h, MCF-7 cells, SRB, three days; read-out: In Vitro Cellular Activity IC50 MCF-7
Summary of the method: (§1)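 Cells were seeded overnight in RPMI 1640 with 5% FBS at 37 °C, 7% CO2 (12000/well BT474, 4000 HCT-116, 6000 LoVo, 6000 MCF-7), then exposed to compound dilutions for 3 days (6 days for BT474). Survival versus untreated controls was measured by TCA fixation and SRB staining at 540 nm.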

[2] = tested on: HCT-116; test: Cytotoxicity assay (SRB), HCT-116; format: cell-based; details: Homo sapiens, HCT-116, 72 h, HCT116 cells, SRB, three days; read-out: In Vitro Cellular Activity IC50 HCT116
Summary of the method: as §1

[3] = molecular target: T1, cyclin E/CDK2 enzyme (Homo sapiens, UniProt P24941); test: CDK2 ELISA kinase assay (phospho-Rb ser 795 detection); format: biochemical; details: In Vitro Enzyme Assays, read-out: CDK2 IC50
T1 construct: made in house; host or cells: Sf9 insect cells, recombinant baculovirus
Summary of the method: (§2)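 Partially purified Sf9-expressed cyclin D1/CDK4, cyclin E/CDK2 or cyclin B/CDK1 phosphorylated plate-bound GST-Rb C-terminal fragment with 200 μM ATP at 30° C for 1 h.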

[4] = tested on: BT474; test: Cytotoxicity assay (SRB), BT474; format: cell-based; details: Homo sapiens, BT-474, 144 h, BT474 cells, SRB, 6 days; read-out: In Vitro Cellular Activity IC50 BT474
Summary of the method: as §1

[5] = molecular target: T2, cyclin B/CDK1 enzyme (Homo sapiens, UniProt P06493); test: CDK1 ELISA kinase assay (phospho-Rb ser 795 detection); format: biochemical; details: In Vitro Enzyme Assays, read-out: CDK1 IC50
T2 construct: purchased New England BioLabs; host or cells: Sf9 insect cells, recombinant baculovirus
Summary of the method: as §2

[6] = tested on: LoVo; test: Cytotoxicity assay (SRB), LoVo; format: cell-based; details: Homo sapiens, LoVo, 72 h, LoVo cells, SRB, three days; read-out: In Vitro Cellular Activity IC50 LOVO
Summary of the method: as §1

[7] = molecular target: T3, cyclin D1/cdk 4 enzyme (Homo sapiens, UniProt P11802); test: CDK4 ELISA kinase assay (phospho-Rb ser 795 detection); format: biochemical; details: In Vitro Enzyme Assays, 200 μM ATP, read-out: CDK4 IC50
T3 construct: made in house; host or cells: Sf9 insect cells, recombinant baculovirus
Summary of the method: as §2

T3 sequence (P11802 whole entry, species assumed): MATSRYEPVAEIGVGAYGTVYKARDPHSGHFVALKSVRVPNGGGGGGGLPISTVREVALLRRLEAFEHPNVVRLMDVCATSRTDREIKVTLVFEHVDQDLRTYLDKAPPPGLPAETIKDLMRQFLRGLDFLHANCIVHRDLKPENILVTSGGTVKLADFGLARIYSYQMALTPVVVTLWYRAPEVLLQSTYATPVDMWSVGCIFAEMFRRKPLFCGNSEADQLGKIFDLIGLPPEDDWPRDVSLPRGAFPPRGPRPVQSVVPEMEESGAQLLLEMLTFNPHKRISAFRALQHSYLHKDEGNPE
T3 sequence (P24385 whole entry partner, species assumed): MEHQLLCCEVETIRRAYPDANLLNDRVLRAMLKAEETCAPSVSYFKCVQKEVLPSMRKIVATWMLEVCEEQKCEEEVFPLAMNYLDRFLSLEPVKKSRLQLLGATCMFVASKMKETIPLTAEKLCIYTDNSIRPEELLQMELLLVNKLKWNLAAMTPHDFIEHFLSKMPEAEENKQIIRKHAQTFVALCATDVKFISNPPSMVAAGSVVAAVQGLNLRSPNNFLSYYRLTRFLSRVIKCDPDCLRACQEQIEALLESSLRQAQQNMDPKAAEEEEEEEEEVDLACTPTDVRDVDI
T2 sequence (P06493 whole entry): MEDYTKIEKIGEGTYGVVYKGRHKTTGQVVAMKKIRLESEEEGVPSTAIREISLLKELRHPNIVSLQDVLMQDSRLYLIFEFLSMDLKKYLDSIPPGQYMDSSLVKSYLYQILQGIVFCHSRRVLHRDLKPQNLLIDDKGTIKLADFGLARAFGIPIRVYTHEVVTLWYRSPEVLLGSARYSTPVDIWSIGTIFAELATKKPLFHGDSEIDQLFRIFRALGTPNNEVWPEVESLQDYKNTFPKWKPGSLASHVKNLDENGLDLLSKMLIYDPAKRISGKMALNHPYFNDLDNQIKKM
T2 sequence (P14635 whole entry partner): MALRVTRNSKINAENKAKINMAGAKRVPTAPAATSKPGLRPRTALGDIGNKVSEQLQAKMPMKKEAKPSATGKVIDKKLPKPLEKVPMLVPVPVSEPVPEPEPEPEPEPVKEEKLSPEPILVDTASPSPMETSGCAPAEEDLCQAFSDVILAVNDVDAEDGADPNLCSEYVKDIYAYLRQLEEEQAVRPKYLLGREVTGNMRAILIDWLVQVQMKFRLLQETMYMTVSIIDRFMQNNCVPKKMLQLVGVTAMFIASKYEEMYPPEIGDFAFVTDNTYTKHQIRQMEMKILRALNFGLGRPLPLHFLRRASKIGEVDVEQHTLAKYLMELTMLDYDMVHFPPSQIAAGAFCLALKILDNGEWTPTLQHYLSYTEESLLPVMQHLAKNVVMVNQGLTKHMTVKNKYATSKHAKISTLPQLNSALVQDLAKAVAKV

| IC50 [3] [µM] | melting point | IC50 [5] [µM] | IC50 [7] [µM] | Compound | IC50 [1] [µM] | IC50 [2] [µM] | IC50 [4] [µM] | IC50 [6] [µM] |
| --- | --- | --- | --- | --- | --- | --- | --- | --- |
| 8.1 | 263 to 264 °C | 1.2 | 0.0008 | COc1cc(CN/C=C2\C(=O)NC(=O)c3ccc(-c4ccoc4)cc32)cc(O)c1OC [Example 87] | 4.1 | 4.2 | 1.3 | 4.2 |
| 3.3 | 265 to 266 °C | > 50 | 0.002 | COc1cc(CN/C=C2\C(=O)NC(=O)c3ccc(I)cc32)cc(O)c1OC [Example 89, (4Z)-6-Iodo-4-{[(3-hydroxy-4,5-dimethoxybenzyl)amino)methylene}isoquinoline-1,3(2H,4H)-dione] | 20 | 3.7 | 5.9 | 7.8 |
| 2.9 | 240 to 242 °C (dec.) | 22.3 | 0.031 | COc1ccc2c(c1)/C(=C/NCc1ccc(OC)c(O)c1)C(=O)NC2=O [Example 90, 4-[(3-Hydroxy-4-methoxy-benzylamino)-methylene]-6-methoxy-4H-isoquinoline-1,3-dione] | 12 | 9.8 | 6.9 | 24 |
| > 50 | 167 to 168 °C | > 50 | 9.4 | O=C1NC(=O)c2ccc(Br)cc2/C1=C/c1cc(Br)c(O)c(Br)c1 [Example 94, (4Z)-6-Bromo-4-(3,5-dibromo-4-hydroxybenzylidene)isoquinoline-1,3(2H,4H)-dione] | 2.3 | 3.4 | 2 | 6.4 |
| 6.7 | 224 to 225 °C | > 50 | 1 | O=Cc1sccc1-c1ccc2c(c1)/C(=C/Nc1ccc(CN3CCCCC3)cc1)C(=O)NC2=O [Example 97] | 2.8 | 1.5 | 3.1 | 1.9 |
| > 50 | 240 to 241 °C | > 50 | 0.34 | COc1cc(CN/C=C2\C(=O)NC(=O)c3ccc(-c4ccc(Oc5ccccc5)cc4)cc32)cc(O)c1OC [Example 100, (4Z)-6-(4-Phenoxyphenyl)-4-{[(3-hydroxy-4,5-dimethoxybenzyl)amino]methylene}isoquinoline-1,3(2H,4H)-dione] | 11 | 13.6 | 8.8 | 27.8 |
| > 50 | 156 to 156.5 °C | > 50 | 24.3 | O=C1NC(=O)c2ccc(Br)cc2/C1=C/N1CCN(CCN2CCOCC2)CC1 [Example 105, (4Z)-6-Bromo-4-{[4-(2-morpholin-4-ylethyl)piperazin-1-yl]methylene}isoquinoline-1,3(2H,4H)-dione] | > 50 | 42.6 | 36.9 | 42.9 |
| > 50 | 166 to 167 °C | > 50 | 31.5 | CN(C)CCN1CCN(/C=C2\C(=O)NC(=O)c3ccc(Br)cc32)CC1 [Example 106, (4Z)-6-Bromo-4-({4-[2-(dimethylamino)ethyl]piperazin-1-yl}methylene)isoquinoline-1,3(2H,4H)-dione] | > 50 | > 50 | 44.6 | > 50 |
| > 50 | 268 to 269 °C | 3.8 | 2.9 | O=C1NC(=O)c2ccc(/C=C/CCCCl)cc2/C1=C/Nc1ccc(CN2CCCCC2)cc1 [Example 112, (4Z)-6-[(1E)-5-Chloropent-1-enyl]-4-({[4-(piperidin-1-ylmethyl)phenyl]amino}methylene)isoquinoline-1,3(2H,4H)-dione] | 3.3 | 0.98 | 2.3 | 1.9 |
| 37.2 | 240 to 241 °C | 47.6 | 0.02 | COc1cc(CN/C=C2\C(=O)NC(=O)c3ccc(-c4ccc(Cl)cc4)cc32)cc(O)c1OC [Example 113, (4Z)-6-(4-Chlorophenyl)-4-{[(3-hydroxy-4,5-dimethoxybenzyl)amino]methylene}isoquinoline-1,3(2H,4H)-dione] | 6.2 | 5.8 | 11 | 2.9 |
| 1.6 | 250 to 251 °C | 16.1 | 0.04 | Nc1ccc(CN/C=C2\C(=O)NC(=O)c3ccc(I)cc32)cc1O [Example 122, (4Z)-4-{[(4-Amino-3-hydroxybenzyl)amino]methylene}-6-iodoisoquinoline-1,3(2H,4H)-dione] | 17 | 7.5 | 5.2 | 9.9 |
| > 50 | 159 to 160 °C | > 50 | 44.4 | O=C1NC(=O)c2ccc(-c3ccc(CN4CCCCC4)cc3)cc2C1=CNc1ccc(CN2CCCCC2)cc1 [Example 125, 6-(4-Piperidin-1-ylmethyl-phenyl)-4-[(4-piperidin-1-ylmethyl-phenylamino)-methylene]-4H-isoquinoline-1,3-dione] | 1.8 | 1.2 | 3.9 | 1.1 |
| 10 | 186 to 187 °C | > 50 | 0.66 | O=C1NC(=O)c2ccc(I)cc2/C1=C/Nc1ccc(CN2CCCC2)cc1 [Example 126] | 2.3 | 3.4 | 0.9 | 5.1 |
| > 50 | 152 to 153 °C | > 50 | 0.37 | O=C1NC(=O)c2ccc(-c3ccc(F)cc3)cc2/C1=C/Nc1ccc(CN2CCCC2)cc1 [Example 127, (4Z)-6-(4-Fluorophenyl)-4-({[4-(pyrrolidin-1-ylmethyl)phenyl]amino}methylene)isoquinoline-1,3(2H,4H)-dione] | 1.4 | 1.3 | 1.4 | 2.9 |
| 13.2 | 227 to 228 °C | > 50 | 0.04 | Nc1ccc(CN/C=C2\C(=O)NC(=O)c3ccc(-c4ccc(F)cc4)cc32)cc1O [Example 134, (4Z)-4-{[(4-Amino-3-hydroxybenzyl)amino]methylene}-6-(4 fluorophenyl)isoquinoline-1,3(2H,4H)-dione] | 12 | 13 | 11 | 11 |
| 0.43 | 252 to 253 °C | 4 | 0.005 | COc1ccc(CN/C=C2\C(=O)NC(=O)c3ccc(-c4cn[nH]c4)cc32)cc1O [Example 136, (4Z)-4-{[(3-Hydroxy-4-methoxybenzyl)amino]methylene}-6-(1H-pyrazol-4-yl)isoquinoline-1,3(2H,4H)-dione] | 48 | 25 | 16 | 36 |
| 33.9 | 212 to 213 °C | > 50 | 0.69 | CC(C)Oc1ccc(CN/C=C2\C(=O)NC(=O)c3ccc(Br)cc32)cc1O [Example 137, (4Z)-6-Bromo-4-{[(3-hydroxy-4-isopropoxybenzyl)amino]methylene}isoquinoline-1,3(2H,4H)-dione] | 17 | 4.4 | 3.3 | 5.8 |
| > 50 | 157 to 158 °C | > 50 | 0.14 | CC1CCCN1Cc1ccc(N/C=C2\C(=O)NC(=O)c3ccc(I)cc32)cc1 (centres unmarked) [Example 138, (4Z)-6-Iodo-4-[({4-[(2-methylpyrrolidin-1-yl)methyl]phenyl}amino)methylene]isoquinoline-1,3(2H,4H)-dione] | 1.2 | 3.7 | 0.41 | 4.9 |
| > 50 | 264 to 265 °C | > 50 | 0.19 | CC(=O)Nc1ccc(CN/C=C2\C(=O)NC(=O)c3ccc(Br)cc32)cc1OC(C)=O [Example 141, 2-(Acetylamino)-5-({[(Z)-(6-bromo-1,3-dioxo-2,3-dihydroisoquinolin-4(1H)-′ylidene)methyl]amino}methyl)phenyl acetate] | 16 | 0.84 | 0.56 | 1.3 |
